This is an account of results in publication PMC11079868, “Synthesis of Novel Hydrazide–Hydrazone Compounds and In Vitro and In Silico Investigation of Their Biological Activities against AChE, BChE, and hCA I and II” (ACS Omega, 2024).

Like-named read-outs stand apart in the source and are kept apart here.

Common to all, as to type: biochemical
In one test the target is T1, AChE (Electrophorus electricus, UniProt O42275).
T1 construct: purchased Sigma-Aldrich C3389
Kind of test: AChE activity assay (Ellman method). Conditions: for IC50: mean from at least three determinations. The text has this:
(§1) In this study, hCA I and II were obtained from fresh human erythrocytes using affinity chromatography as previously described in the literature.[36],[37] AChE from Electrophorus electricus (electric eel) (C3389: Sigma-Aldrich), BChE from equine serum (C4290: Sigma-Aldrich), and the other chemicals (4-nitrophenyl acetate (N8130: Sigma-Aldrich), 5,5′-dithiobis(2-nitrobenzoic acid) (D218200: Sigma-Aldrich), acetylthiocholine iodide (A5771: Sigma-Aldrich), butyrylthiocholine iodide (B3253: Sigma-Aldrich)) were purchased from local representatives of well-known commercial companies. On the other hand, the absorbance rates of each compound were determined by a microplate spectrophotometer (Multiskan Go, Thermo Scientific).
(§2) The evaluation of the inhibitory characteristics of all synthesized compounds against AChE and BChE was conducted using the widely recognized Ellman method,[41] as described in pertinent literature sources.[2],[14],[18]
(In general: Ellman's reagent forms a yellow product with free thiols.)

The target of the next test is T2, hCA II (Homo sapiens, UniProt P00918).
T2 construct: from tissue; host or cells: fresh human erythrocytes
Kind of test: hCA II activity assay (Verpoorte esterase method). The settings on record: mean from at least three determinations.
Description: as §1
In this study, we conducted hCA I and II activity assays using the Verpoorte method, as outlined in previous literature.[38] The inhibitory activities of all of the newly synthesized compounds were thoroughly tested. The inhibitory activity of each molecule was examined in triplicate at each concentration. Different concentrations were employed for all inhibitors tested in this study, respectively. The baseline activity in the control cuvette, without any inhibitory agent, was established as 100%. AZA was used as a positive control compound.

The next test deals with T3, BChE (Equus caballus, UniProt P81908).
T3 construct: BChE from equine serum (C4290: Sigma-Aldrich); purchased Sigma-Aldrich C4290; host or cells: equine serum
T3 sequence (P81908 whole entry): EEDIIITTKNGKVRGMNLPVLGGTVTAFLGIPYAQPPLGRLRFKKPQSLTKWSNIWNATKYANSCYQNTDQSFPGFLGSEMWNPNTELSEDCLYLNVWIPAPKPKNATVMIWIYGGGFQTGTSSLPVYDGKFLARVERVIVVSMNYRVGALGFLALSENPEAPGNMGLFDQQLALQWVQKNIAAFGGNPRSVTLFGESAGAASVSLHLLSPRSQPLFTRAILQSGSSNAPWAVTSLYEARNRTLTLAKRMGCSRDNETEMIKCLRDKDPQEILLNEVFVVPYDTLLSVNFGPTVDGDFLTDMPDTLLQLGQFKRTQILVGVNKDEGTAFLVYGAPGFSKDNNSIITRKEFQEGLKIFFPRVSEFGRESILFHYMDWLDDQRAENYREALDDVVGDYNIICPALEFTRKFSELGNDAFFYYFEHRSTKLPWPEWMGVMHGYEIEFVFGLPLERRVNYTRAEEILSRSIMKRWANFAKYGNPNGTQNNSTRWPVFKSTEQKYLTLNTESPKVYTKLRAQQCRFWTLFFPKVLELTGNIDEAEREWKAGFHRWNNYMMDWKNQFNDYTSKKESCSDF
The test is described as follows: BChE activity assay (Ellman method).
Description: as §1, §2

The next test addresses T4, hCA I (Homo sapiens, UniProt P00915).
T4 construct: from tissue; host or cells: fresh human erythrocytes
Kind of test: biochemical. The settings on record: for IC50: mean from at least three determinations.
Description: as §1
In this study, we conducted hCA I and II activity assays using the Verpoorte method, as outlined in previous literature.[38] The inhibitory activities of all of the newly synthesized compounds were thoroughly tested. The inhibitory activity of each molecule was examined in triplicate at each concentration. Different concentrations were employed for all inhibitors tested in this study, respectively. The baseline activity in the control cuvette, without any inhibitory agent, was established as 100%.

The mark [1] stands for this setting: mean from at least three determinations, read-out: IC50 BChE.
Setting [2] is: ratio of IC50 values vs neostigmine.

T4 sequence (P00915 whole entry): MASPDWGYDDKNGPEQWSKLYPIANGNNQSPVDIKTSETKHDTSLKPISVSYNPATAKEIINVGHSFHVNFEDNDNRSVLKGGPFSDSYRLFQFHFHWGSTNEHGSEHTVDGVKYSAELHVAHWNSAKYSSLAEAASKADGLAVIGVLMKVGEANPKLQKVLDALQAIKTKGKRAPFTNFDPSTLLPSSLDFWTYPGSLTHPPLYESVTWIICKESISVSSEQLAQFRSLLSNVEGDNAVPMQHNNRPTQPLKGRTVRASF
T1 sequence (O42275 24-633): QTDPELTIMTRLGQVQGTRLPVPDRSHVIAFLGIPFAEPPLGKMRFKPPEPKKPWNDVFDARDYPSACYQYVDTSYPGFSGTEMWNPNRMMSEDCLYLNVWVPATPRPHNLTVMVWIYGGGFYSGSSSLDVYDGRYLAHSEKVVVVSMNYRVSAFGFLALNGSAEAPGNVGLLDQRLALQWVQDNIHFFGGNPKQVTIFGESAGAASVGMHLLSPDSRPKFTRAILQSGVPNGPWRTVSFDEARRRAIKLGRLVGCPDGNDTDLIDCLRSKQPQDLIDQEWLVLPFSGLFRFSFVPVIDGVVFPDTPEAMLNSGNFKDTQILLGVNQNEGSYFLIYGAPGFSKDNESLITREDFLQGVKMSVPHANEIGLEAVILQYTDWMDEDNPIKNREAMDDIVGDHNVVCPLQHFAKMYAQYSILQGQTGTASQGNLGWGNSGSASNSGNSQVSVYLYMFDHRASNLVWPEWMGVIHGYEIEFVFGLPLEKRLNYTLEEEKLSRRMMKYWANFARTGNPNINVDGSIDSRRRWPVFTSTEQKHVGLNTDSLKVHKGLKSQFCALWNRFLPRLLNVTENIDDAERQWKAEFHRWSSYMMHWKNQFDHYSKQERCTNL

For the compound `CN(C)c1ccc(C(=O)Oc2ccccc2C=O)cc1` [compound 1, 2-Formylphenyl 4-(Dimethylamino)benzoate], the IC50 against AChE was 51.1 ± 0.88 nM; against hCA II, 13.7 ± 0.27 nM; on BChE (setting [1]), 43.5 ± 0.75 nM; on hCA I, 27.5 ± 0.51 nM.
Taken in the same sequence, the figures for `CN(C)c1ccc(C(=O)Oc2ccc(C=O)cc2)cc1` [compound 2, 4-Formylphenyl 4-(Dimethylamino)benzoate] were 48.5 ± 0.81 nM, 12.2 ± 0.21 nM, 41.5 ± 0.68 nM and 25.6 ± 0.47 nM.
Taken in the same sequence, the figures for `COc1cccc(C=O)c1OC(=O)c1ccc(N(C)C)cc1` [compound 3, 2-Formyl-6-methoxyphenyl 4-(Dimethylamino)benzoate] were 59.5 ± 0.96 nM, 16.1 ± 0.33 nM, 51.3 ± 0.89 nM and 39.6 ± 0.72 nM.
Taken in the same sequence, the figures for `COc1ccc(C=O)cc1OC(=O)c1ccc(N(C)C)cc1` [compound 4, 5-Formyl-2-methoxyphenyl 4-(Dimethylamino)benzoate] were 60.2 ± 1.02 nM, 15.4 ± 0.32 nM, 53.1 ± 0.91 nM and 38.1 ± 0.65 nM.
Regarding `COc1cc(C=O)ccc1OC(=O)c1ccc(N(C)C)cc1` [compound 5, 4-Formyl-2-methoxyphenyl 4-(Dimethylamino)benzoate], the 50% inhibitory concentration (IC50) against AChE came to 61.4 ± 1.12 nM; against hCA II, 20.4 ± 0.35 nM; at BChE (setting [1]), 54.7 ± 0.91 nM; against hCA I, 39.1 ± 0.71 nM.
For the compound `CN(C)c1ccc(C(=O)Oc2ccc3ccccc3c2C=O)cc1` [compound 6, 1-Formylnaphthalen-2-yl 4-(Dimethylamino)benzoate], the IC50 on AChE came out at 28.2 ± 0.52 nM; against hCA II it was 24.7 ± 0.43 nM; on BChE (setting [1]), 25.2 ± 0.42 nM; at hCA I it was 45.1 ± 0.82 nM.
For `CN(C)c1ccc(C(=O)Oc2ccccc2C=NNC(=O)c2cccnc2)cc1` [compound 7, 2-((2-Nicotinoylhydrazono)methyl)phenyl 4-(Dimethylamino)benzoate] the same measures were 48.6 ± 0.79 nM, 8.03 ± 0.14 nM, 45.3 ± 0.82 nM and 29.1 ± 0.53 nM.
`CN(C)c1ccc(C(=O)Oc2ccc(C=NNC(=O)c3cccnc3)cc2)cc1` [compound 8, 4-((2-Nicotinoylhydrazono)methyl)phenyl 4-(Dimethylamino)benzoate]: the half-inhibitory concentration (IC50) against AChE is 46.3 ± 0.75 nM; against hCA II, 7.12 ± 0.12 nM; at BChE (setting [1]), 43.4 ± 0.83 nM; on hCA I, 21.4 ± 0.39 nM. For the same compound, the “inhibition of hCA I relative to AZA” value at hCA I (ratio of IC50 values vs AZA) was found to be 13 fold.
Turning to `COc1cccc(C=NNC(=O)c2cccnc2)c1OC(=O)c1ccc(N(C)C)cc1` [compound 9, 2-Methoxy-6-((2-nicotinoylhydrazono)methyl)phenyl 4-(Dimethylamino)benzoate], the concentration for half-maximal inhibition (IC50) on AChE stood at 43.2 ± 0.81 nM; against hCA II, 12.5 ± 0.21 nM; on BChE (setting [1]), 39.6 ± 0.71 nM; against hCA I, 35.7 ± 0.74 nM.
For `COc1ccc(C=NNC(=O)c2cccnc2)cc1OC(=O)c1ccc(N(C)C)cc1` [compound 10, 2-Methoxy-5-((2-nicotinoylhydrazono)methyl)phenyl 4-(Dimethylamino)benzoate] the same measures were 29.6 ± 0.53 nM, 11.8 ± 0.22 nM, 29.7 ± 0.54 nM and 32.5 ± 0.73 nM.
For `COc1cc(C=NNC(=O)c2cccnc2)ccc1OC(=O)c1ccc(N(C)C)cc1` [compound 11, 2-Methoxy-4-((2-nicotinoylhydrazono)methyl)phenyl 4-(Dimethylamino)benzoate], the IC50 against AChE was 28.6 ± 0.52 nM; at hCA II, 11.6 ± 0.22 nM; on BChE (setting [1]), 28.6 ± 0.5 nM; on hCA I, 32.2 ± 0.72 nM.
Turning to `CN(C)c1ccc(C(=O)Oc2ccc3ccccc3c2C=NNC(=O)c2cccnc2)cc1` [compound 12, 1-((2-Nicotinoylhydrazono)methyl)naphthalen-2-yl 4-(Dimethylamino)benzoate], the half-inhibitory concentration (IC50) is 21.4 ± 0.38 nM against AChE, 23.5 ± 0.41 nM at hCA II, 18.4 ± 0.36 nM on BChE (setting [1]) and 42.7 ± 0.81 nM at hCA I. Besides, at AChE (setting [2]), the “inhibition of AChE relative to neostigmine” value is given as “more than 6 fold”. Besides, the “inhibition of AChE relative to rivastigmine” value on AChE (ratio of IC50 values vs rivastigmine) was “approximately 3 fold”. Besides, the “inhibition of BChE relative to neostigmine” value at BChE (setting [2]) is given as “approximately 5 fold”; at BChE (ratio vs neostigmine, Conclusions text), “approximately 4 times”.
`CN(C)C(=O)Oc1cccc([N+](C)(C)C)c1` [neostigmine, reference compound] registered an IC50 against BChE of 84 ± 1.07 nM.

In general, IC50 refers to the concentration that inhibits the measured activity by half.
